Measurements published in article PMC6934184, “Selective DNA-PKcs inhibition extends the therapeutic index of localized radiotherapy and chemotherapy” (The Journal of Clinical Investigation, 2019).

Target: T1, FGR (Homo sapiens, UniProt P09769)
T1 construct: purchased Thermo Fisher Scientific (Life Technologies) SelectScreen
Assay: SelectScreen Z'LYTE
Assay type: biochemical
Outline: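 Percent values come from Thermo SelectScreen profiling of NU5455, combining activity and binding assays. CSF1R was run in Z'LYTE format at Km app ATP, and CAMK1 in Adapta format with ATP listed at 10.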

T1 sequence (P09769 whole entry): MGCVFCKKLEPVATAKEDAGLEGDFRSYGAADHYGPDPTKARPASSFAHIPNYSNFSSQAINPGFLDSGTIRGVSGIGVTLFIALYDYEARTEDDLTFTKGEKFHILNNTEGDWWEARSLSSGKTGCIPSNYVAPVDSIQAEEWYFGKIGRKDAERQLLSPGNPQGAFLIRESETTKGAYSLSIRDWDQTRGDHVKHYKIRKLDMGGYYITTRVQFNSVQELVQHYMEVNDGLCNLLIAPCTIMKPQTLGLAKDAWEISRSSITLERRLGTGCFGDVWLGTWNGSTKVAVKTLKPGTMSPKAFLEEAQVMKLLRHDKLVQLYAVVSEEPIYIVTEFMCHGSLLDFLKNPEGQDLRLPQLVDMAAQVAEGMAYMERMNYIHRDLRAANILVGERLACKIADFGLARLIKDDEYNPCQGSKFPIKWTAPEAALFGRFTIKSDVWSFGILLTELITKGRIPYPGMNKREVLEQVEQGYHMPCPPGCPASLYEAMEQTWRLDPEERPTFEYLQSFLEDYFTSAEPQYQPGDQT

CN(C(=O)CN1CCOCC1)c1ccc2sc3c(-c4cccc5c(=O)cc(N6CC7CCC(C6)O7)oc45)cccc3c2c1 [NU5455]
inhibition at 1 µM: 12.1%
